In patent US4629782A, “Crystalline form of N-acetylmuramyl-L-α-aminobutyryl-D-isoglutamine” (Syntex (U.S.A.) Inc., priority 1984, dated 1986):

Key:
[1] = Thermogravimetric analysis (TGA) after vacuum drying and exposure to air; type: physicochemical; settings: dried under house vacuum 12 hours, exposed to air about 3 hours; 1.5% initial weight loss attributed to surface water
Procedure: The mole ratio of water to ABU-MDP in the crystalline monohydrate of formula (1) was determined by thermogravimetric analysis (TGA). A small amount of the monohydrate prepared in accordance with Example II was dried under "house" vacuum for 12 hours and then exposed to air for about 3 hours. […] This analysis was conducted with a Perkin Elmer TGS-2 thermogravimetric balance. The heating rate was 2.5° C. per minute from 40° C. to 160° C. A dry nitrogen purge was maintained throughout each run.

[2] = Hygroscopicity, visual comparison at 76% relative humidity and ambient temperature; type: physicochemical; settings: 76% relative humidity, ambient temperature, visual observation
Excerpt: The crystalline monohydrate of this invention is less hygroscopic than amorphous ABU-MDP. This is readily observed by visually comparing samples of each in separate containers at 76% relative humidity and ambient temperature.

| Substance | Hygroscopicity indicated by TGA [1] | Hygroscopicity: physical state on exposure to humidity [2] |
| --- | --- | --- |
| acetylmuramyl-L-α-aminobutyryl-D-isoglutamine monohydrate [Crystalline monohydrate] | slightly hygroscopic | remains a solid |
| N-acetylmuramyl-L-α-aminobutyryl-D-isoglutamine [Amorphous ABU-MDP, reference compound] | – | turns into a syrupy solution within about an hour |
